The results in this text go back to PMC6332424, “Synthesis and Evaluation of New Pyrazoline Derivatives as Potential Anticancer Agents” (Molecules, 2015).

“Also recorded” adds a separate entry of the source.

Data set [1] deals with U87 human glioblastoma cell line. The data set is described as follows: MTT assay for cytotoxicity, U87 cells. The class given is cell-based. The conditions noted are these: for IC50: MTT, 24 h incubation. As to the method:
(§1) U251 and U87 human glioblastoma cells were incubated in Dulbecco’s-modified Eagle’s medium (DMEM) (Wako Pure Chemical Industries, Osaka, Japan) supplemented with 10% fetal bovine serum (FBS) (Equitech-Bio, Kerrville, TX, USA). AsPC-1 human pancreas adenocarcinoma and Jurkat human leukemic T-cells were incubated RPMI 1640 (Wako Pure Chemical Industries), supplemented with 10% FBS. Peripheral blood mononuclear cells (PBMC) (Precision Bioservices, Frederick, MD, USA) were incubated RPMI 1640 and supplemented with 10% human serum AB (HS) (Gemini, Woodland, CA, USA). All media were supplemented with 89 µg/mL streptomycin (Meiji Seika Pharma, Tokyo, Japan) and cells were incubated at 37 °C in a humidified atmosphere of 95% air and 5% CO2. Growing cells were plated at 1 × 10^5 cells/mL into 24-well microtiter tissue culture plates (Iwaki brand Asahi Glass Co., Chiba, Japan) and incubated for 24 h before the addition of the drugs (the optimal cell number for cytotoxicity assays was determined in preliminary experiments). Stock solutions (1 mM, 5 mM, 10 mM, 20 mM, and 50 mM) of compounds and cisplatin (Sigma-Aldrich, St. Louis, MO, USA) were prepared in dimethyl sulfoxide (DMSO; Wako Pure Chemical Industries) and in dimethylformamide (DMF; Wako Pure Chemical Industries) respectively, then were added to fresh culture medium. The concentration of DMSO and DMF in the final culture medium was 1%. The level of cellular reduction of 3-(4,5-dimethylthiazol-2-yl)-2,5-diphenyltetrazolium bromide (MTT) (Dojindo Molecular Technologies, Kumamoto, Japan) was quantified as previously described in the literature with small modifications. The tested compounds were incubated with cells to give a final concentration in the range 50–500 µM for 24 h. At the end of this period, MTT was added to cells in culture to give a final concentration of 0.275 mg/mL and incubated further for 4 h at 37 °C. The medium was removed and the formazan crystals were solubilized by addition of 100 µL DMSO to each well. After the solubilized crystals were diluted (1:10) with DMSO, 100 µL was transferred to wells of 96-well microtiter plates (Iwaki brand Asahi Glass Co.) and the absorbance at 550 nm was measured using a microplate spectrophotometer Infinitive M1000 (Tecan, Groding, Austria). Every concentration was repeated in three wells and IC50 values were defined as the drug concentrations which reduced absorbance to 50 % of control values.

Data set [2] deals with U251 human glioblastoma cell line. Nature of the data set: MTT assay for cytotoxicity, U251 cells. The following applies: 24 h incubation. The class given is cell-based. As to the method:
as §1

Data set [3] relates to AsPC-1 human pancreatic adenocarcinoma cell line. Nature of the data set: MTT assay for cytotoxicity, AsPC-1 cells. The conditions noted are these: 24 h incubation, read-out: IC50 AsPC1 Cell Line. The class given is cell-based. As for the experimental part:
as §1

Another data set deals with U251 cells. The data set is described as follows: Detection of apoptotic and necrotic cells (annexin V/ethidium homodimer III staining). The class given is cell-based, human. From the text:
U251 cells were stained and observed by fluorescence microscope (Figure 4). If the cells are colored green with annexin V, and not stained red with ethidium homodimer III, the cells are judged to be apoptotic. […] The apoptotic and necrotic effects of compound 11 were compared with cisplatin. […] Then, apoptotic/necrotic/healthy cells detection kit protocol was applied according to the manufacturer’s instruction manual (PromoKine, Heidelberg, Germany). After the cells were washed twice with 1 × binding buffer, a staining solution containing 50 µL of 1 × binding buffer, 2 µL of FTIC-Annexin V solution, 2 µL of ethidium homodimer III solution and 2 µL of Hoechst 33342 solution was added and the cells were incubated for 15 min at RT, protected from light. Cells were washed with 1 × binding buffer and analyzed by all-in-one fluorescence microscope Biorevo Fluorescence BZ-9000 (Keyence, Osaka, Japan).

The subject of data set [4] is peripheral blood mononuclear cells (PBMC). Nature of the data set: MTT cell viability, PBMC (tumor selectivity). The class given is cell-based, human. The following applies: Figure 3b, read-out: IC50 against PBMC. As to the method:
(§2) U251 and U87 human glioblastoma cells were incubated in Dulbecco’s-modified Eagle’s medium (DMEM) (Wako Pure Chemical Industries, Osaka, Japan) supplemented with 10% fetal bovine serum (FBS) (Equitech-Bio, Kerrville, TX, USA). AsPC-1 human pancreas adenocarcinoma and Jurkat human leukemic T-cells were incubated RPMI 1640 (Wako Pure Chemical Industries), supplemented with 10% FBS. Peripheral blood mononuclear cells (PBMC) (Precision Bioservices, Frederick, MD, USA) were incubated RPMI 1640 and supplemented with 10% human serum AB (HS) (Gemini, Woodland, CA, USA). […] Growing cells were plated at 1 × 10^5 cells/mL into 24-well microtiter tissue culture plates (Iwaki brand Asahi Glass Co., Chiba, Japan) and incubated for 24 h before the addition of the drugs (the optimal cell number for cytotoxicity assays was determined in preliminary experiments). […] The level of cellular reduction of 3-(4,5-dimethylthiazol-2-yl)-2,5-diphenyltetrazolium bromide (MTT) (Dojindo Molecular Technologies, Kumamoto, Japan) was quantified as previously described in the literature with small modifications. […] After the solubilized crystals were diluted (1:10) with DMSO, 100 µL was transferred to wells of 96-well microtiter plates (Iwaki brand Asahi Glass Co.) and the absorbance at 550 nm was measured using a microplate spectrophotometer Infinitive M1000 (Tecan, Groding, Austria). […]

Data set [5] relates to AsPC-1, U87 and U251 cell lines. Nature of the data set: MTT assay, overall activity on the three cell lines (in words). The class given is cell-based, human. The conditions noted are these: 10–500 µM, all three cell lines. As for the experimental part: as §2
The subject of another data set is supercoiled pUC19 DNA. Nature of the data set: DNA cleavage assay (agarose gel electrophoresis). The class given is biochemical. The conditions noted are these: 37 °C, 1.5 h. As to the method: The DNA cleavage activities of compound 11 and cisplatin at the IC50 concentrations in water and Tris/boric acid buffer in the presence and absent of the iron complex, H2O2 and ascorbic acid as an activator were studied using supercoiled pUC19 DNA (Figure 5). The reaction mixture was incubated at 37 °C for 1.5 h and then agarose gel electrophoresis was performed at 100 V for 40 min. DNA was visualized by photographing the fluorescence of intercalated ethidium bromide under a UV illuminator. […] Thus, it is considered that DNA-cleavage was caused by oxygen activation.
The DNA cleavage activities of the compounds were studied using supercoiled pUC19 DNA and analyzed by agarose (Takara, Kyoto, Japan) gel electrophoresis Mupid-2x (Mupid, Tokyo, Japan). pUC19 DNA (2 µg) was treated with compounds in water and Tris/boric acid (Nacalai Tesque, Kyoto, Japan) buffer (10 mM, pH 8.5) in the presence and absence of iron (II) sulfate heptahydrate (FeSO4·7H2O; 30 µM) (Wako Pure Chemical Industries), hydrogen peroxide (H2O2; 30 µM) (Tokyo Chemical Industry Co., Tokyo, Japan) and ascorbic acid (30 µM) (Tokyo Chemical Industry Co.) as an activator. […] DNA was visualized by photographing the fluorescence of intercalated ethidium bromide under a UV illuminator (Nippon Genetics Co., Tokyo, Japan).

Data set [6] deals with Jurkat human leukemic T-cells. Nature of the data set: MTT cell viability, Jurkat cells (tumor selectivity). The class given is cell-based. As for the experimental part: as §2

On to “1-[(Pyrimidin-2-yl)thioacetyl]-3-(2-thienyl)-5-(4-chlorophenyl)-2-pyrazoline [Compound 7]”, for which the half-inhibitory concentration (IC50) in data set [1] was more than 500 µM; in data set [2] it was more than 500 µM; in data set [3], 236 ± 36.4 µM.

As for “1-[(5-Methyl-1,3,4-thiadiazol-2-yl)thioacetyl]-3-(2-thienyl)-5-(4-chlorophenyl)-2-pyrazoline [Compound 6]”, the concentration for half-maximal inhibition (IC50) in data set [1] was more than 500 µM; in data set [2] it was more than 500 µM; in data set [3] it was 199 ± 32.8 µM.

For the molecule “1-[(5-Phenyl-1,3,4-oxadiazol-2-yl)thioacetyl]-3-(2-thienyl)-5-(4-chlorophenyl)-2-pyrazoline [Compound 8]”, the half-inhibitory concentration (IC50) is more than 500 µM in data set [1], 393 ± 60.4 µM in data set [2] and 139 ± 26.8 µM in data set [3].

In the case of “1-[(1-(4-Hydroxyphenyl)-1H-tetrazol-5-yl)thioacetyl]-3-(2-thienyl)-5-(4-chlorophenyl)-2-pyrazoline [Compound 4]”, the IC50 in data set [1] was more than 500 µM; in data set [2], more than 500 µM; in data set [3] it was 65 ± 5.4 µM.

Consider “1-[(5-(4-Methoxyphenyl)-1,3,4-oxadiazol-2-yl)thioacetyl]-3-(2-thienyl)-5-(4-chlorophenyl)-2-pyrazoline [Compound 12]”, for which, in data set [1], the “cytotoxicity on U87 cell line (in words)” value is “no significant cytotoxicity”.

For the molecule `N.N.[Cl][Pt][Cl]` [Cisplatin, reference compound], the IC50 was determined as 14.8 ± 1.4 µM in data set [1], 4.9 ± 1 µM in data set [2] and 22.5 ± 2 µM in data set [3]. Further, the apoptotic/necrotic effect result with U251 cells (IC50 concentration, 24 h) was “only apoptotic effects”.

In the case of “1-[(1-(2-(Dimethylamino)ethyl)-1H-tetrazol-5-yl)thioacetyl]-3-(2-thienyl)-5-(4-chlorophenyl)-2-pyrazoline [Compound 5]”, the IC50 was more than 500 µM in data set [1], more than 500 µM in data set [2] and 216 ± 29.7 µM in data set [3].

In the case of “1-[(1-Methyl-1H-tetrazol-5-yl)thioacetyl]-3-(2-thienyl)-5-(4-chlorophenyl)-2-pyrazoline [Compound 2]”, the half-inhibitory concentration (IC50) in data set [1], in data set [2] and in data set [3] was more than 500 µM throughout.

With “1-[(5-(4-Methylphenyl)-1,3,4-oxadiazol-2-yl)thioacetyl]-3-(2-thienyl)-5-(4-chlorophenyl)-2-pyrazoline [Compound 11]”, the IC50 is approximately 1000 µM in data set [4] and 90 µM in data set [6] (MTT, Figure 3b, read-out: IC50 against Jurkat human leukemic T-cells). Moreover, in data set [5], the “cytotoxic activity (in words)” value was “good activity”. Further, the “DNA-cleaving efficiency compared with cisplatin” value in the data set on supercoiled pUC19 DNA (IC50 concentrations, iron (II) complex system) is “more significant than cisplatin; also recorded: much greater than cisplatin”. For the same molecule, the “DNA cleavage efficiency with vs without FeSO4, H2O2 and ascorbic acid” value in the data set with supercoiled pUC19 DNA (pUC19 DNA, 30 µM each activator) is recorded as “clearly enhanced”. In addition, the “tumor selectivity in blood cells (PBMC vs Jurkat)” value in data set [6] (ratio of IC50 PBMC to IC50 Jurkat) was “more than 10 times”. The apoptotic/necrotic effect entry with U251 cells (IC50 (11.9 µM, high concentration), 3 h) was “mainly induced necrosis”; in the data set on U251 cells (IC50 concentration, 24 h), “late stage apoptotic or necrotic effect”; in the data set on U251 cells (low concentration (1.5 µM), 3 h), “exhibited apoptotic phenotype; also recorded: induced apoptosis; also recorded: showed apoptotic activity”.

On to “1-[(5-(Pyridin-3-yl)-1,3,4-oxadiazol-2-yl)thioacetyl]-3-(2-thienyl)-5-(4-chlorophenyl)-2-pyrazoline [Compound 9]”, for which the half-maximal inhibitory concentration (IC50) is more than 500 µM in data set [1], more than 500 µM in data set [2] and 108 ± 30.1 µM in data set [3].

“1-[(5-(4-Chlorophenyl)-1,3,4-oxadiazol-2-yl)thioacetyl]-3-(2-thienyl)-5-(4-chlorophenyl)-2-pyrazoline [Compound 10]” registered an IC50 in data set [1] of 251 ± 30.4 µM.

In the case of “1-[(1-Phenyl-1H-tetrazol-5-yl)thioacetyl]-3-(2-thienyl)-5-(4-chlorophenyl)-2-pyrazoline [Compound 3]”, the IC50 in data set [1], in data set [2] and in data set [3] was more than 500 µM in each case.
